# Counter-ions that a name gives are not always drawn.
# Key:
# [1] = biological target: T1, 5-lipoxygenase (Cavia porcellus, UniProt A0A286X958); test: Inhibitory effect on 5-lipoxygenase activity (antiallergic activity in vitro); type: biochemical, guinea pig (male Hartley); details: for inhibition at 10 µM: 10^-5 M test compound, guinea pig peritoneal exudate cell cytosol, mean of 3 to 6 experiments
# T1 construct: A cytosol fraction of peritoneal exudate cell from male Hartley guinea pig (weighing 400 to 700 g) was used as 5-lipoxygenase; endogenous in cells; host or cells: cytosol fraction of peritoneal exudate cells from male Hartley guinea pig
# T1 sequence (A0A286X958 1-674): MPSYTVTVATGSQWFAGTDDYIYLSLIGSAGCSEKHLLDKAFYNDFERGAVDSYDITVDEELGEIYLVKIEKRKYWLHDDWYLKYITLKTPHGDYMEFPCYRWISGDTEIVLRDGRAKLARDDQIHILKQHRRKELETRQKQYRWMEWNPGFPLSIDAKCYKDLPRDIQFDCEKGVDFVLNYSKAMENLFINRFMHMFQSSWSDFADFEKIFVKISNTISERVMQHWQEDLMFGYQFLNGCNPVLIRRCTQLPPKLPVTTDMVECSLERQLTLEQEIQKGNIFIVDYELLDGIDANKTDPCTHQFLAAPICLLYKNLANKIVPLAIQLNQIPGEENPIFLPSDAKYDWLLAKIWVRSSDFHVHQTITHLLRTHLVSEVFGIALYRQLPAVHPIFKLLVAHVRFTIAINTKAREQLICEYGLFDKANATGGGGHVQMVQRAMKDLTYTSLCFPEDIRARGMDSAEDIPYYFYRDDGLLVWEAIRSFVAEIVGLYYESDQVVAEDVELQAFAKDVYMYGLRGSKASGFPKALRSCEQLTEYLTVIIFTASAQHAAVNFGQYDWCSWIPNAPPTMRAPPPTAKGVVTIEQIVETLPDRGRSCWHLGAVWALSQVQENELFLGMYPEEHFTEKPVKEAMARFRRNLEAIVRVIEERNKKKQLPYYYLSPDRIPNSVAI
# Protocol: This experiment was carried out by the method of Miyamoto and Obata ["Perspectives in Prostaglandin Research", ed. by Y. Shiokawa et al., Excerpta Medica, Amsterdam-Oxford-Princeton, 1983, p.78] with minor modifications.
# A cytosol fraction of peritoneal exudate cell from male Hartley guinea pig (weighing 400 to 700 g) was used as 5-lipoxygenase. As a standard reaction solution, a mixture of 50 mM potassium phosphate buffer (pH 7.4), 1 mM calcium chloride, 1 mM glutathione, 1 mM adenosine triphosphate, 10 μM indomethacin and the enzyme was used. To the reaction solution was added 0.02 μCi of [1-^14 C] arachidonic acid and the mixture was incubated at 30° C. for 5 minutes, followed by adding 0.6 ml of a cold solution comprising diethyl ether methanol -0.2 M citric acid (30 : 4 : 1) to terminate the reaction. The organic layer (300 μ1) was subjected to a thin layer chromatography plate on silica gel 60 F254 (E. Merck, West Germany) and, after developing, a radioactivity was measured by means of radiochromatogram scanner (Packard, U.S.A.) 5-Lipoxygenase activity was calculated by the following equation. [formula]
# The results are shown in Table 1 in terms of mean value of 3 to 6 experiments.
# [2] = system: ddY mice; test: Acute toxicity; type: in vivo; details: 1000 mg/kg oral; male ddY mice, 7 days observation
# Description: Five male ddY mice weighing 25 to 29 g were used in each group.
# [3] = system: passive cutaneous anaphylaxis (PCA); test: Inhibitory effect on passive cutaneous anaphylaxis (PCA) (antiallergic activity in vivo); design: species or system rat (male Wistar); details: 20 mg/kg oral, 1 hour prior to dye injection; rats; vs control group
# Protocol: Male Wistar rats (weighing 130 to 190 g) were injected with a dilute solution (0.1 ml) of mouse antiserum to egg albumin, which was prepared by the method of Levine et al. [Int. Arch. Allergy Appl. […] Forty-eight hours later, 0.5% Evan's blue solution (1 ml) containing 2 mg of egg albumin was intravenously injected to tail vein of the animal. Thirty minutes after the dye injection, abdominal skin was peeled off and the area of the blueing lesions was measured. In each rat, a mean value of the two lesions was regarded as the response of the rat. The test compounds in a dose of 20 mg/kg, dissolved or suspended in a 0.5% aqueous tragacanth solution, were orally administered 1 hour prior to the dye injection.
SMILES,inhibition at 10 µM [1] [%],also measured
"Cc1ccc2c(S)c(C(=O)NCCCCN3CCN(C(c4ccccc4)c4ccccc4)CC3)cnc2n1 [Example 9, N-[4-(4-diphenylmethyl-1-piperazinyl)butyl]-4-mercapto-7-methyl-1,8-naphthyridine-3-carboxamide.cndot.fumarate.cndot.1/2 hydratet]",88.3,
Cc1ccc2ncc(C(=O)NCCCCN3CCN(C(c4ccccc4)c4ccccc4)CC3)c(O)c2c1 [Example 14],93.7,
Cc1cccc2c(O)c(C(=O)NCCCCN3CCN(C(c4ccccc4)c4ccccc4)CC3)cnc12 [Example 16],90.6,
"COc1cccc2c(O)c(C(=O)NCCCCN3CCN(C(c4ccccc4)c4ccccc4)CC3)cnc12 [Example 3, N-[4-(4-diphenylmethyl-1-piperazinyl)butyl]-4-hydroxy-8-methoxyquinoline-3-carboxamide]",91.3,death of the animals [2]: no death was observed; PCA inhibition (%) [3]: 56.0%
"N#Cc1cccc2ncc(C(=O)NCCCCN3CCN(C(c4ccccc4)c4ccccc4)CC3)c(O)c12 [Example 7 (5cyano compound), N-[4-(4-diphenylmethyl-1-piperazinyl)butyl]-5-cyano-4-hydroxyquinoline-3-carboxamide]",92.1,
"Cc1ccc2c(O)c(C(=O)NCCCCN3CCN(C(c4ccccc4)c4ccccc4)CC3)cnc2n1 [Example 2, N-[4-(4-diphenylmethyl-1-piperazinyl)butyl]-4-hydroxy-7-methyl-1,8-naphthyridine-3-carboxamide.cndot.1/2 hydrate]",79.6,PCA inhibition (%) [3]: 80.7%
"N#Cc1ccc2c(O)c(C(=O)NCCCCN3CCN(C(c4ccccc4)c4ccccc4)CC3)cnc2c1 [Example 7 (7cyano compound), N-[4-(4-diphenylmethyl-1-piperazinyl)butyl]-7-cyano-4-hydroxyquinoline-3-carboxamide]",84.7,
O=C(NCCCCN1CCN(C(c2ccccc2)c2ccccc2)CC1)c1cnc2ccccc2c1O [Example 12],83.7,
"O=C(NCCCCN1CCN(C(c2ccccc2)c2ccccc2)CC1)c1cnc2cccc(O)c2c1O [Example 4, N-[4-(4-diphenylmethyl-1-piperazinyl)butyl]-4,5-dihydroxyquinoline-3-carboxamide]",95.4,
Cc1ccc2c(O)c(C(=O)NCCCCN3CCN(C(c4ccccc4)c4ccccc4)CC3)cnc2c1 [Example 15],93,
N#Cc1ccc2ncc(C(=O)NCCCCN3CCN(C(c4ccccc4)c4ccccc4)CC3)c(O)c2c1 [Example 21],67.9,
"CC(C)c1ccc(C(=O)NCCCCN2CCN(C(c3ccccc3)c3ccccc3)CC2)c(O)n1 [Example 6, N-[4-(4-diphenylmethyl-1-piperazinyl)butyl]-2-hydroxy-6-isopropylpyridine-3carboxamide]",75.1,death of the animals [2]: no death was observed; PCA inhibition (%) [3]: 93.0%
CC(C)c1ccc2ncc(C(=O)NCCCCN3CCN(C(c4ccccc4)c4ccccc4)CC3)c(O)c2c1 [Example 17],95.3,
COc1ccc2ncc(C(=O)NCCCCN3CCN(C(c4ccccc4)c4ccccc4)CC3)c(O)c2c1 [Example 18],93.2,
"COc1c(C(=O)NCCCCN2CCN(C(c3ccccc3)c3ccccc3)CC2)cnc2ccccc12 [Example 5, N-[4-(4-diphenylmethyl-1-piperazinyl)butyl]-4-methoxyquinoline-3-carboxamide.cndot.1/4 hydrate]",80.3,
"Cc1ccc(C(=O)NCCCCN2CCN(C(c3ccccc3)c3ccccc3)CC2)c(O)n1 [Example 10, N-[4-(4-diphenylmethyl-1-piperazinyl)butyl]-2-hydroxy-6-methylpyridine-3-carboxamide]",,PCA inhibition (%) [3]: 84.8%
COc1ccc2c(O)c(C(=O)NCCCCN3CCN(C(c4ccccc4)c4ccccc4)CC3)cnc2c1 [Example 19],92.8,
"COc1cccc2c(O)c(C(=O)NCCCCN3CCC(=C(c4ccccc4)c4ccccc4)CC3)cnc12 [Example 8, N-[4-(4-diphenylmethylene-1piperidyl)butyl]-4-hydroxy-8-methoxyquinoline-3-carboxamide.cndot.fumarate]",93.3,
CCCCOc1cccc2c(O)c(C(=O)NCCCCN3CCN(C(c4ccccc4)c4ccccc4)CC3)cnc12 [Example 20],94.8,
"CN1CCC(=C2c3ccccc3CC(=O)c3sccc32)CC1 [Ketotifen fumarate, reference compound]",,5-lipoxygenase inhibitory activity (in words) ([1]; ketotifen fumarate at 10^-4 M): did not show any significant inhibitory activity; PCA inhibition (%) [3]: 54.7%
"Cc1ccc2c(O)c(C(=O)NCCCCN3CCC(=C(c4ccccc4)c4ccccc4)CC3)cnc2n1 [Example 1, N-[4-(4-diphenylmethylene-1-piperidyl)butyl]-4-hydroxy-7-methyl-1,8-naphthyridine-3-carboxamide.cndot.1/4 hydrate]",96.8,death of the animals [2]: no death was observed; PCA inhibition (%) [3]: 88.3%

# — patent US4965266A, “Heteroarylcarboxamide derivatives, process for preparing the same and pharmaceutical composition containing the same” (Dainippon Pharmaceutical Co., Ltd., priority 1987, dated 1990)
